Values of other authors in article PMC12697872, “Rethinking the AI Paradigm for Solubility Prediction of Drug‑Like Compounds with Dual‐Perspective Modeling and Experimental Validation” (Advanced Science, 2025).
Where two headings read alike, the source gives them in different places.

Conditions: cited from earlier work; for ex_logS: experimental aqueous solubility as logS
[1] = sheet "DrugBank" of Supplement 2, ref DrugBank
[2] = sheet "DrugBank", ref DrugBank database
[3] = discarded ambiguous entries of DrugBank database, ref DrugBank database (version 5.1.12) 24

Row | Compound | ex_logS [1] | ex_logS [2] | further results
1 | OC(Cn1cncn1)(Cn1cncn1)c1ccc(F)cc1F [fluconazole] | -1.8 | – | –
2 | OCc1ccccc1 [Benzyl alcohol] | – | -0.5155 | –
3 | Cc1cccc(N(C)C(=S)Oc2ccc3ccccc3c2)c1 [Tolnaftate] | -6.641 | – | –
4 | CC(=O)CC(c1ccccc1)c1c(O)c2ccccc2oc1=O (centres unmarked) [warfarin] | -4.26 | – | –
5 | Nc1ccc(S(=O)(=O)Nc2nccs2)cc1 [Sulfathiazole] | – | -2.835 | –
6 | CC1(C)S[C@@H]2[C@H](NC(=O)C(C(=O)O)c3ccccc3)C(=O)N2[C@H]1C(=O)O (some centres unmarked) [Carbenicillin] | -2.924 | – | –
7 | C[C@@H]1C[C@H]2[C@@H]3CCC4=CC(=O)C=C[C@]4(C)[C@@]3(F)[C@@H](O)C[C@]2(C)[C@H]1C(=O)CO [Desoximetasone] | -3.951 | – | –
8 | CN(CCN1CCC(OC(=O)Nc2ccccc2-c2ccccc2)CC1)C(=O)c1ccc(CN2CCC(C(N)=O)CC2)cc1 [864750-70-9] | – | – | Experimental solubility [3]: < 1 mg/ml mg/mL
9 | CC(=O)OCC(=O)[C@@]1(O)CC[C@H]2[C@@H]3CCC4=CC(=O)CC[C@]4(C)[C@H]3C(=O)C[C@@]21C [Cortisone acetate] | – | -4.304 | –
10 | CCC(C)C(C)(COC(N)=O)COC(N)=O (centres unmarked) [Mebutamate] | – | -2.366 | –
11 | CCN1C(=O)NC(c2ccccc2)C1=O (centres unmarked) [Ethotoin] | -1.587 | – | –
12 | Oc1c(Cl)cc(Cl)cc1Sc1cc(Cl)cc(Cl)c1O [Bithionol] | – | -4.949 | –
13 | Cc1ccc(C(=O)c2ccc(CC(=O)O)n2C)cc1 [Tolmetin] | – | -3.064 | –
14 | COc1ccc(C2C(=O)c3ccccc3C2=O)cc1 [Anisindione] | -3.5 | – | –
15 | C=CC1=C(C)c2cc3[nH]c(cc4nc(cc5[nH]c(cc1n2)c(C)c5CCC(=O)O)C(CCC(=O)O)=C4C)c(C)c3C=C [Protoporphyrin] | – | -3.522 | –
16 | Cn1nnc(-c2ccc(-c3ccc(N4C[C@H](CO)OC4=O)cc3F)cn2)n1 [Tedizolid] | – | -3.569 | –
17 | CCc1cccc2c3c([nH]c12)C(CC)(CC(=O)O)OCC3 (centres unmarked) [Etodolac] | – | -4.2543 | –
18 | CC(=O)/N=c1/sc(S(N)(=O)=O)nn1C [Methazolamide] | – | -1.829 | –
19 | Cc1onc(-c2c(Cl)cccc2Cl)c1C(=O)N[C@@H]1C(=O)N2[C@@H]1SC(C)(C)[C@@H]2C(=O)O [Dicloxacillin] | – | -5.112 | –
20 | CC(C)[C@@H]1CC[C@@H](C)C[C@H]1O [Levomenthol] | -2.504 | – | –
21 | C#CC1(OC(N)=O)CCCCC1 [Ethinamate] | – | -1.825 | –
22 | CC(OC(=O)NCC1(CC(=O)O)CCCCC1)OC(=O)C(C)C (centres unmarked) [Gabapentin enacarbil] | -2.819 | – | –

Row | Compound | ex_logS [1] | ex_logS [2] | further results
23 | NCC[C@H](O)C(=O)N[C@@H]1C[C@H](N)[C@@H](O[C@H]2O[C@H](CN)[C@@H](O)[C@H](O)[C@H]2O)[C@H](O)[C@H]1O[C@H]1O[C@H](CO)[C@@H](O)[C@H](N)[C@H]1O [Amikacin] | -1.069 | – | –
24 | N[C@@H](C(=O)N[C@@H]1C(=O)N2C(C(=O)O)=C(Cl)CS[C@H]12)c1ccccc1 [Cefaclor] | – | -1.566 | –
25 | Cc1ccccc1N1C(=O)c2cc(S(N)(=O)=O)c(Cl)cc2NC1C (centres unmarked) [Metolazone] | -3.783 | – | –
26 | NNCCc1ccccc1 [Phenelzine] | – | -0.6703 | –
27 | COc1ccc(CCN2CCC(Nc3nc4ccccc4n3Cc3ccc(F)cc3)CC2)cc1 [Astemizole] | -3.026 | – | –
28 | Cc1onc(-c2ccccc2)c1C(=O)N[C@@H]1C(=O)N2[C@@H]1SC(C)(C)[C@@H]2C(=O)O [Oxacillin] | – | -4.4606 | –
29 | Cc1ncc(CO)c(CO)c1O [Pyridoxine] | – | 0.1141 | –
30 | CO/N=C(\C(=O)N[C@@H]1C(=O)N2C(C(=O)[O-])=C(C[N+]3(C)CCCC3)CS[C@H]12)c1csc(N)n1 [Cefepime] | – | -4.4513 | –
31 | CCCC(=O)Nc1ccc(OCC(O)CNC(C)C)c(C(C)=O)c1 (centres unmarked) [Acebutolol] | – | -3.114 | –
32 | CCOC(=O)[C@H](CCc1ccccc1)N[C@@H](C)C(=O)N1CCC[C@H]1C(=O)O [Enalapril] | – | -1.361 | –
33 | O=C(O)[C@H](O)c1ccccc1 [(R)-Mandelic acid] | – | -0.1409 | –
34 | CN1CC[C@]23c4c5ccc(O)c4O[C@H]2C(=O)CC[C@@]3(O)[C@H]1C5 [Oxymorphone] | – | -1.099 | –
35 | NCCc1ccc(O)c(O)c1 [Dopamine] | 0.593 | – | –
36 | O=C1CCC(N2C(=O)c3ccccc3C2=O)C(=O)N1 (centres unmarked) [Thalidomide] | -2.676 | – | –
37 | COc1ccc2c(c1)c(CC(=O)O)c(C)n2C(=O)c1ccc(Cl)cc1 [Indomethacin] | – | -5.582 | –
38 | O=[N+]([O-])O[C@H]1CO[C@H]2[C@@H]1OC[C@H]2O[N+](=O)[O-] [Isosorbide dinitrate] | -2.6328 | – | –
39 | CO[C@@]1(NC(=O)CSCC#N)C(=O)N2C(C(=O)O)=C(CSc3nnnn3C)CS[C@@H]21 [Cefmetazole] | -3.699 | – | –
40 | CCCCC1(CC)C(=O)NC(=O)NC1=O [Butobarbital] | -1.638 | – | –
41 | O=C(O)c1ccc(O)cc1O [2,4-Dihydroxybenzoic Acid] | -1.426 | – | –
42 | CC(C(=O)O)c1ccc(N2Cc3ccccc3C2=O)cc1 (centres unmarked) [indoprofen] | -4.82 | – | –
43 | CN(C)CCCN1c2ccccc2Sc2ccccc21 [Promazine] | – | -4.302 | –
44 | c1ccc(-c2ccc(C(c3ccccc3)n3ccnc3)cc2)cc1 (centres unmarked) [bifonazole] | -5.95 | – | –

Row | Compound | ex_logS [1] | ex_logS [2] | further results
45 | CN1CCN(C2=Nc3cc(Cl)ccc3Nc3ccccc32)CC1 [Clozapine] | – | -4.442 | –
46 | C[C@]12CCC(=O)C=C1CC[C@@H]1[C@@H]2CC[C@@]2(C)[C@H]1CC[C@]2(C)O [Methyltestosterone] | – | -3.95 | –
47 | COc1ccc([C@@H]2CC(=O)c3c(O)cc(O)cc3O2)cc1O [Hesperetin] | – | -3.044 | –
48 | CC(O)(CS(=O)(=O)c1ccc(F)cc1)C(=O)Nc1ccc(C#N)c(C(F)(F)F)c1 (centres unmarked) [Bicalutamide] | -4.935 | – | –
49 | OCCc1ccccc1 [Phenylethyl alcohol] | – | -0.7406 | –
50 | c1ccc2[nH]c(-c3cscn3)nc2c1 [Thiabendazole] | -3.605 | – | –
51 | OC(O)C(Cl)(Cl)Cl [Chloral hydrate] | 0.6807 | – | –
52 | CCC[C@H](NC(=O)[C@@H]1[C@H]2CCC[C@H]2CN1C(=O)[C@@H](NC(=O)[C@@H](NC(=O)c1cnccn1)C1CCCCC1)C(C)(C)C)C(=O)C(=O)NC1CC1 [Telaprevir] | – | -5.16 | –
53 | C#C[C@]1(O)CC[C@H]2[C@@H]3CCc4cc(O)ccc4[C@H]3CC[C@@]21C [Ethinylestradiol] | – | -4.4188 | –
54 | O=C(O)c1ccc2nc(-c3cc(Cl)cc(Cl)c3)oc2c1 [594839-88-0] | – | – | Experimental solubility [3]: >50 mg/mL
55 | O=c1[nH]c(=O)n([C@H]2C[C@H](O)[C@@H](CO)O2)cc1F [Floxuridine] | – | -1.316 | –
56 | Nc1nc2c(ncn2CCC(CO)CO)c(=O)[nH]1 [Penciclovir] | – | -2.173 | –
57 | CCCN(CCC)S(=O)(=O)c1ccc(C(=O)O)cc1 [Probenecid] | – | -4.022 | –
58 | Nc1nc(F)nc2c1ncn2[C@@H]1O[C@H](CO)[C@@H](O)[C@@H]1O [Fludarabine] | – | -1.907 | –
59 | COc1ccc2c3c1O[C@H]1[C@@H](O)C=C[C@H]4[C@@H](C2)N(C)CC[C@@]341 [codeine] | -1.52 | – | –
60 | Nc1ncnc2[nH]cnc12 [Adenine] | – | -2.1179 | –
61 | CCCCC[C@H](O)/C=C/[C@H]1[C@H](O)CC(=O)[C@@H]1CCCCCCC(=O)O [Alprostadil] | – | -4.123 | –
62 | CCOC(=O)[C@H](CCc1ccccc1)N[C@H]1CCc2ccccc2N(CC(=O)O)C1=O [Benazepril] | – | -1.349 | –
63 | [H]/N=C(\N/C(=N/[H])Nc1ccc(Cl)cc1)NC(C)C [Proguanil] | – | -3.211 | –
64 | CN1C(=O)CC(=O)N(c2ccccc2)c2cc(Cl)ccc21 [Clobazam] | – | -3.204 | –
65 | Cc1ccc(/C(=C\CN2CCCC2)c2ccccn2)cc1 [Triprolidine] | -3.57 | – | –
66 | CC1(C)CCC(C)(C)c2cc(Cn3cccn3)c(/C=C/c3ccc(C(=O)O)cc3)cc21 [Palovarotene] | – | -7.016 | –

Row | Compound | ex_logS [1] | ex_logS [2] | further results
67 | O=C(O)[C@H]1O[C@@H](O)[C@H](O)[C@@H](O)[C@@H]1O [beta-D-glucuronic acid] | 0.3976 | – | –
68 | O=C1NC(=O)C(c2ccccc2)(c2ccccc2)N1 [phenytoin] | -3.99 | – | –
69 | Cc1ncc(COP(=O)(O)O)c(C=O)c1O [54-47-7] | – | – | Experimental solubility (descriptive) [3]: Appreciable
70 | Cc1ccnc2c1ccc1c(C)ccnc12 [4,7-Dimethyl-[1,10]Phenanthroline] | – | -3.968 | –
71 | CCC1(CC)C(=O)NCC(C)C1=O (centres unmarked) [Methyprylon] | – | -1.202 | –
72 | Oc1ccc(OCc2ccccc2)cc1 [Monobenzone] | – | -2.902 | –
73 | COc1cc(C)c(/C=C/C(C)=C/C=C/C(C)=C/C(=O)O)c(C)c1C [Acitretin] | – | -6.651 | –
74 | NC(=O)C[C@H](N)C(=O)O [Asparagine] | – | -0.6526 | –
75 | NC1(C(=O)O)CCCC1 [Cycloleucine] | -0.4121 | – | –
76 | NC(=O)c1cccnc1 [Nicotinamide] | 0.6122 | – | –
77 | COC1=CC(=O)C[C@@H](C)[C@]12Oc1c(Cl)c(OC)cc(OC)c1C2=O [Griseofulvin] | -4.611 | – | –
78 | Cc1nnc2n1-c1ccc(Cl)cc1C(c1ccccc1Cl)=NC2 [Triazolam] | – | -4.879 | –
79 | Cc1cnc(Nc2ccc(OCCN3CCCC3)cc2)nc1Nc1cccc(S(=O)(=O)NC(C)(C)C)c1 [Fedratinib] | -5.118 | – | –
80 | c1ccc2cnccc2c1 [Isoquinoline] | -1.456 | – | –
81 | Cn1c(=O)c2[nH]cnc2n(C)c1=O [Theophylline] | -1.389 | – | –
82 | COc1cc2c(c(OC)c1OC)-c1ccc(OC)c(=O)cc1[C@@H](NC(C)=O)CC2 [Colchicine] | – | -0.9632 | –
83 | O=c1[nH]c(=O)n([C@H]2C[C@H](O)[C@@H](CO)O2)cc1I [Idoxuridine] | – | -2.248 | –
84 | NC[C@H](CC(=O)O)c1ccc(Cl)cc1 [Arbaclofen] | – | -2.01 | –
85 | CCn1c(=O)c2c(nc(/C=C/c3ccc(OC)c(OC)c3)n2C)n(CC)c1=O [Istradefylline] | – | -5.886 | –
86 | CCC1(CCC(C)C)C(=O)NC(=O)NC1=O [Amobarbital] | -2.574 | – | –
